According to patent US7078438B2, “N-(4 substituted phenyl)-anthranilic acid hydroxamate esters” (Warner-Lambert Company, priority 2002, dated 2006):

Legend:
MEK = test: Cellular assay for measuring MEK inhibition (inhibition of ERK phosphorylation); assay type: cell-based; conditions: inhibition of phosphorylation of MAP kinase (ERK) in murine colon 26 (C26) carcinoma cells; 1 hour at 37° C.; Western blotting
Description: Cellular Assay for Measuring MEK Inhibition
The evaluation of the compounds as MEK inhibitors is performed in an assay that measures their ability to inhibit phosphorylation of MAP kinase (ERK) in murine colon 26 (C26) carcinoma cells. Since ERK1 and ERK2 represent the only known substrates for MEK, measurement of inhibition of ERK phosphorylation in cells provides direct readout of cellular MEK inhibition by the compounds of the invention. Briefly, the assay involves treating exponentially growing C26 cells with varying concentrations of the test compound (or vehicle control) for 1 hour at 37° C. Cells are then rinsed free of compound/vehicle and lysed in a solution containing 70 mM NaCl, 50 mM glycerol phosphate, 10 mM HEPES, pH 7.4, 1% Triton X-100, 1 mM Na3VO4, 100 μM PMSF, 10 μM leupeptin, and 10 μM pepstatin. Supernatants are then subjected to gel electrophoresis and Western blotting using a primary antibody recognizing dually phosphorylated ERK1 and ERK2. To evaluate total MAPK levels, blots were subsequently ‘stripped’ and re-probed with a 1:1 mixture of polyclonal antibodies recognizing unphosphorylated ERK1 and ERK2.
The inhibition data generated by the above protocol is disclosed in Table 1. If several concentrations of inhibitor were tested, IC50 values (the concentration which gives 50% inhibition) were determined graphically from the dose response curve for % inhibition. Otherwise, percent inhibitions at measured concentrations are reported.

SMILES	IC50 (MEK)	melting point
CCc1ccc(Nc2c(C(=O)NOCCO)ccc(F)c2F)c(F)c1 [Example 1, 2-[(4-Ethyl-2-fluorophenyl)amino]-3,4-difluoro-N-(2-hydroxyethoxy)benzamide]	2.8 nM	–
CCc1ccc(Nc2c(C(=O)NOCCO)ccc(F)c2F)c(Cl)c1 [Example 2, 2-(2-Chloro-4-ethyl-phenylamino)-3,4-difluoro-N-(2-hydroxy-ethoxy)-benzamide]	8.6 nM	142.5 to 145 °C
Cc1ccc(Nc2c(C(=O)NOCCO)ccc(F)c2F)c(F)c1 [Example 3, 3,4-Difluoro-2-(2-fluoro-4-methylanilino)-N-(2-hydroxyethoxy)benzamide]	0.15 nM	134 to 139 °C
C=Cc1ccc(Nc2c(C(=O)NOCCO)ccc(F)c2F)c(F)c1 [Example 4, 3,4-Difluoro-2-[(2-fluoro-4-vinylphenyl)amino]-N-(2-hydroxyethoxy)benzamide]	2.6 nM	134 to 138 °C
C=CCc1ccc(Nc2c(C(=O)NOCCO)ccc(F)c2F)c(F)c1 [Example 6, 2-(4-Allyl-2-fluoroanilino)-3,4-difluoro-N-(2-hydroxyethoxy)benzamide]	7.8 nM	173 to 177 °C
C#Cc1ccc(Nc2c(C(=O)NOCCO)ccc(F)c2F)c(F)c1 [Example 7]	0.15 nM	158 to 161 °C
C#Cc1ccc(Nc2c(C(=O)NOCCO)ccc(F)c2F)c(Cl)c1 [Example 8, 2-(2-Chloro-4-ethynyl-phenylamino)-3,4-difluoro-N-(2-hydroxy-ethoxy)-benzamide]	4 nM	155 to 157 °C
NCC#Cc1ccc(Nc2c(C(=O)NOCCO)ccc(F)c2F)c(F)c1 [Example 9, 2-[4-(3-Amino-1-propynyl)-2-fluoroanilino]-3,4-difluoro-N-(2-hydroxyethoxy)benzamide]	467 nM	72 to 76 °C
O=C(NOCCO)c1ccc(F)c(F)c1Nc1ccc(C#CCO)cc1F [Example 10, 3,4-Difluoro-2-[2-fluoro-4-(3-hydroxy-1-propynyl)anilino]-N-(2-hydroxyethoxy)benzamide]	130 nM	169 to 172 °C
O=C(NOCCO)c1ccc(F)c(F)c1Nc1ccc(C#CCCO)cc1F [Example 11, 3,4-Difluoro-2-[2-fluoro-4-(4-hydroxy-1-butynyl)anilino]-N-(2-hydroxyethoxy)benzamide]	700 nM	126 to 129 °C
CC(C)(O)C#Cc1ccc(Nc2c(C(=O)NOCCO)ccc(F)c2F)c(F)c1 [Example 12, 3,4-Difluoro-2-[2-fluoro-4-(3-hydroxy-3-methyl-1-butynyl)anilino]-N-(2-hydroxyethoxy)benzamide]	> 3000 nM	139 to 142 °C
CCC(C)(O)C#Cc1ccc(Nc2c(C(=O)NOCCO)ccc(F)c2F)c(F)c1 (stereo not shown) [Example 13, 3,4-Difluoro-2-[2-fluoro-4-(3-hydroxy-3-methyl-1-pentynyl)anilino]-N-(2-hydroxyethoxy)benzamide]	> 1000 nM	127 to 131 °C
NCCCc1ccc(Nc2c(C(=O)NOCCO)ccc(F)c2F)c(F)c1 [Example 14, 2-[4-(3-Aminopropyl)-2-fluoroanilino]-3,4-difluoro-N-(2-hydroxyethoxy)benzamide]	> 1000 nM	178 to 181 °C
CN(C)CCCc1ccc(Nc2c(C(=O)NOCCO)ccc(F)c2F)c(F)c1 [Example 15, 2-{4-[3-(Dimethylamino)propyl]-2-fluoroanilino}-3,4-difluoro-N-(2-hydroxyethoxy)benzamide]	> 1000 nM	–
CNCCCc1ccc(Nc2c(C(=O)NOCCO)ccc(F)c2F)c(F)c1 [Example 16, 3,4-Difluoro-2-{2-fluoro-4-[3-(methylamino)propyl]anilino}-N-(2-hydroxyethoxy)benzamide]	> 1000 nM	112 to 116 °C
O=C(NOCCO)c1ccc(F)c(F)c1Nc1ccc(CO)cc1 [Example 17, 3,4-Difluoro-N-(2-hydroxyethoxy)-2-[[4-(hydroxymethyl)phenyl]amino]benzamide]	> 1000 nM	73 to 77 °C
O=C(NOCCO)c1ccc(F)c(F)c1Nc1ccc(CO)cc1F [Example 18, 3,4-Difluoro-2-[2-fluoro-4-(hydroxymethyl)anilino]-N-(2-hydroxyethoxy)benzamide]	–	108 to 110 °C
O=C(NOCCO)c1ccc(F)c(F)c1Nc1ccc(CCCO)cc1F [Example 20, 3,4-Difluoro-2-[2-fluoro-4-(3-hydroxypropyl)anilino]-N-(2-hydroxyethoxy)benzamide]	–	115 to 116 °C
O=C(NOCCO)c1ccc(F)c(F)c1Nc1ccc(CCCCO)cc1F [Example 21, 3,4-Difluoro-2-[2-fluoro-4-(4-hydroxybutyl)anilino]-N-(2-hydroxyethoxy)benzamide]	800 nM	65 to 69 °C
O=C(NOCCO)c1ccc(F)c(F)c1Nc1ccc(CC(O)CO)cc1F (stereo not shown) [Example 22, 2-[4-(2,3-Dihydroxypropyl)-2-fluoroanilino]-3,4-difluoro-N-(2-hydroxyethoxy)benzamide]	–	118 to 120 °C
CC(C)(O)CCc1ccc(Nc2c(C(=O)NOCCO)ccc(F)c2F)c(F)c1 [Example 23, 3,4-Difluoro-2-[2-fluoro-4-(3-hydroxy-3-methylbutyl)anilino]-N-(2-hydroxyethoxy)benzamide]	200 nM	–
CCC(C)(O)CCc1ccc(Nc2c(C(=O)NOCCO)ccc(F)c2F)c(F)c1 (stereo not shown) [Example 24, 3,4-Difluoro-2-[2-fluoro-4-(3-hydroxy-3-methylpentyl)anilino]-N-(2-hydroxyethoxy)benzamide]	590 nM	–
COCCCc1ccc(Nc2c(C(=O)NOCCO)ccc(F)c2F)c(F)c1 [Example 25, 3,4-Difluoro-2-[[2-fluoro-4-(3-methoxypropyl)phenyl]amino]-N-(2-hydroxyethoxy)benzamide]	22 nM	–
CSc1ccc(Nc2c(C(=O)NOCCO)ccc(F)c2F)c(F)c1 [Example 26, 3,4-Difluoro-2-[[2-fluoro-4-(methylthio)phenyl]amino]-N-(2-hydroxyethoxy)benzamide]	0.85 nM	108 to 111 °C
CCSc1ccc(Nc2c(C(=O)NOCCO)ccc(F)c2F)c(F)c1 [Example 27, 3,4-Difluoro-2-[[2-fluoro-4-(ethylthio)phenyl]amino]-N-(2-hydroxyethoxy)benzamide]	2.2 nM	129 to 132 °C
CS(=O)(=O)c1ccc(Nc2c(C(=O)NOCCO)ccc(F)c2F)c(F)c1 [Example 28, 3,4-Difluoro-2-[[2-fluoro-4-(methylsulfonyl)phenyl]amino]-N-(2-hydroxyethoxy)benzamide]	720 nM	85 to 88 °C
CCCc1ccc(Nc2c(C(=O)NOCCO)ccc(F)c2F)c(F)c1 [Example 29, 3,4-Difluoro-2-(2-fluoro-4-propylanilino)-N-(2-hydroxyethoxy)benzamide]	4.1 nM	144 to 146 °C
CCCCc1ccc(Nc2c(C(=O)NOCCO)ccc(F)c2F)c(F)c1 [Example 30, 2-(4-Butyl-2-fluoroanilino)-3,4-difluoro-N-(2-hydroxyethoxy)benzamide]	190 nM	–
CCc1ccc(Nc2c(C(=O)NOC[C@@H](O)CO)ccc(F)c2F)c(F)c1 [Example 32, N-[(S+)2,3-Dihydroxy-propoxy]-2-(4-ethyl-2-fluoro-phenylamino)-3,4-difluoro-benzamide]	2 nM	–
CCc1ccc(Nc2c(C(=O)NOC(CO)CO)ccc(F)c2F)c(F)c1 [Example 33, 2-(4-Ethyl-2-fluoro-phenylamino)-3,4-difluoro-N-(2-hydroxy-1-hydroxymethyl-ethoxy)-benzamide]	–	91 to 93 °C
